# Assay results taken from patent US11357782B2, “Treprostinil administration by inhalation” (priority 2006, dated 2022).
# Entries after “also recorded” stand apart in the source; their conditions may differ.
# Columns and labels:
# [1] = test system: patients with pre-existing gas exchange problems; test: Ventilation-perfusion matching by multiple inert gas elimination technique (MIGET)
# Description: The impact of SMI-TRE on ventilation-perfusion matching was assessed in five patients (30 μg TRE, n=2; 45 μg TRE, n=1; 60 μg TRE, n=2) with pre-existing gas exchange problems by use of the multiple inert gas elimination technique (MIGET), see e.g. Wagner PD, Saltzman HA, West JB. Measurement of continuous distributions of ventilation-perfusion ratios: theory. J Appl Physiol. 1974; 36:588-99; Ghofrani HA, Wiedemann R, Rose F, Schermuly RT, Olschewski H, Weissmann N et al. Sildenafil for treatment of lung fibrosis and pulmonary hypertension: a randomised controlled trial. Lancet. 2002; 360:895-900, both incorporated herein in their entirety.
# The inhalation of a highly concentrated aerosol can be in theory prone to disturbances of gas exchange because the deposition of even small amounts of aerosol may deliver high doses locally and thereby antagonize the hypoxic pulmonary vasoconstriction in poorly ventilated areas. This would then lead to increased shunt flow or increase of low ventilation/perfusion (V/Q) areas. This question was addressed in five patients with the multiple inert gas elimination technique (MIGET), the gold-standard for intrapulmonary V/Q ratio determination. The MIGET patients were selected for pre-existing gas exchange limitations. […] Etiologies were iPAH (n=1), CTEPH (n=3), pulmonary fibrosis (n=1).
# [2] = test system: patients with severe pulmonary hypertension; test: Study ii) placebo controlled dose escalation study of inhaled treprostinil, hemodynamics and tolerability; conditions: for maximal decrease of PVR to: 6 min inhalation
# Description: Study ii) was a randomized, open-label, single blind, placebo controlled study. […] A total number of 31 patients inhaled either placebo or treprostinil; each patient received one inhalation. […] Inhalation time was 6 minutes in all groups.
# [3] = Aerosol quality by laser diffractometry (Respimat SMI); format: physicochemical; conditions: treprostinil-aerosol from Respimat SMI
# Excerpt: Placebo and treprostinil was applied with the Respimat® SMI. […] Eur. Respir.
# [4] = test system: patients with moderate to severe precapillary pulmonary hypertension; test: Study i) randomized crossover study of inhaled treprostinil vs inhaled iloprost, right heart catheter; format: in vivo, human; conditions: for area under the curve (AUC) of PVR decrease: mean±95% confidence interval
# Description: All inhalations were performed with the […]® ultrasonic nebulizer ([…], Germany). Study i) was a randomized, open-label, single-blind crossover study. […] Patient characteristics and hemodynamic as well as gas exchange parameters are outlined in Table 3. Each patient inhaled both iloprost and treprostinil on the same day during right heart catheter investigation; the drugs were administered consecutively with a one hour interval between the drug applications. One half of the study patients initially inhaled treprostinil and then inhaled iloprost (n=22), while the other half initially inhaled iloprost and then inhaled treprostinil (n=22). Patients were randomized to one of the two groups and blinded as to the study drugs. Drug effects were monitored for 60 minutes after each inhalation.
# [5] = metacresol-containing TRE solution
smiles,measurement,setting,value
CCCCC[C@H](O)CC[C@@H]1[C@H]2Cc3cccc(OCC(=O)[O-])c3C[C@H]2C[C@H]1O.[Na+] [TRE],shunt flow,"[1]; 60 minutes after SMI-TRE, mean±95% confidence interval, n=5",8.3±3.4%
same,low V/Q areas or shunt fraction,"[1]; after inhalation of SMI-TRE, n=5",No significant increase
same,maximal relative reduction of SaO2,"[1]; five MIGET patients, compared to baseline values",−3.8±1.5%
same,cardiac output increased to a maximum of,[2]; 30 μg,106.8±3.2%
same,side effects,"[2]; 30 μg TRE, n=1 each",flushing; also recorded: mild transient bronchoconstriction
same,duration of hemodynamic changes,"[2]; 30 μg dose group, 3 hour observation period",had just returned to baseline within this period
same,maximal decrease of PVR to,"[2]; 30 μg, n=8",76.5±4.7 % of baseline values
same,cardiac output increased to a maximum of,[2]; 60 μg,122.9±4.3%
same,side effects,"[2]; 60 μg TRE, n=3",mild transient cough
same,duration of pulmonary vasodilation,"[2]; 60 μg and 90 μg (and 120 μg) TRE doses, surpassing observation period",> 3 h
same,maximal decrease of PVR to,"[2]; 60 μg, n=6",73.7±5.8 % of baseline values
same,cardiac output increased to a maximum of,[2]; 90 μg,114.3±4.8%
same,maximal decrease of PVR to,"[2]; 90 μg, n=6",73.3±4.3 % of baseline values
same,cardiac output increased to a maximum of,[2]; 120 μg TRE,111.3±3.9%
same,arterial oxygen saturation,"[2]; 120 μg TRE, all 3 patients",significantly decreased
same,side effects,"[2]; 120 μg TRE, n=1 each",moderate bronchoconstriction; also recorded: severe headache
same,maximal decrease of PVR to,"[2]; 120 μg, n=3",65.4±4.1 % of baseline values
same,gas exchange,[2]; doses up to 90 μg TRE,not affected
same,effects on systemic arterial pressure,[2]; even at the highest doses,only minor effects
same,taste of the aerosol,[2]; [5],bad taste of the TRE aerosol was reported by most patients
same,tolerated inhaled dose,[2]; single inhalation,up to 90 μg
same,aerosol particles mass median aerodynamic diameter,[3],4 to 5 µm
same,area under the curve (AUC) of PVR decrease,"[4]; 7.5 μg inhaled in 6 minutes, start of inhalation until 60 min",−12.6±7.0%
same,area under the curve (AUC) of PVR decrease,"[4]; 15 μg inhaled in 6 minutes, until 60 min",−13.3±3.2%
same,area under the curve (AUC) of PVR decrease,"[4]; 15 TRE inhaled in 3 minutes, until 60 min",−13.6±4.3%
same,PVR values after 60 min,[4]; 60 min after inhalation,had not yet returned to baseline
same,gas exchange,[4]; after inhalation,did not affect gas exchange
same,systemic arterial pressure (SAP),[4]; after inhalation,unaffected
same,"side effects (transient flush, headache)","[4]; iloprost 7.5 μg, treprostinil 7.5-15 μg",not observed
same,maximum effect on PVR,"[4]; iloprost vs treprostinil, pooled",comparable
same,taste,[4]; [5],Bad taste was reported by most of the patients
same,time to maximum effect on PVR after inhalation,"[4]; pooled n=44, mean±SEM, p<0.0001",18 ± 2 min
